In patent publication US8394952B2 (Vertex Pharmaceuticals Incorporated, priority 2006, dated 2013) one finds Ki data, which are given here for 27 compounds.

In the test the target is Plk1 (Homo sapiens, UniProt P53350). The test can be described thus: biochemical.
Chain of Plk1 (P53350 20-338): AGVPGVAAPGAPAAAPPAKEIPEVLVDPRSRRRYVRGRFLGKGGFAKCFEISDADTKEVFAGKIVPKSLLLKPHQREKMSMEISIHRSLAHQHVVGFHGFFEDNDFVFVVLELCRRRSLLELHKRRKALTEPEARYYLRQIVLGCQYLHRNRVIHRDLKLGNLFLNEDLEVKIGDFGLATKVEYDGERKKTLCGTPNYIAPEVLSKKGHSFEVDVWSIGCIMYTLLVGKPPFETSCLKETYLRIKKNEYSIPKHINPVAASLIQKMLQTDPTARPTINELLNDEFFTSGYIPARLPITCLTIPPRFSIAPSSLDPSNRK
Consider `CN1CCC(C(=O)Nc2cccc(Nc3ncc4c(n3)N(C3CCCC3)CC(C)(C)C(=O)N4C)c2)CC1` [Compound I-157, N-(3-(9-cyclopentyl-6,7,8,9-tetrahydro-5,7,7-trimethyl-6-oxo-5H-pyrimido[4,5-b][1,4]diazepin-2-ylamino)phenyl)-1-methylpiperidine-4-carboxamide], for which the Ki (as a rule, a measure of affinity in units of concentration, obtained from inhibition or displacement) was less than 10 nM.
The compound `COc1ccc(NC(C)=O)cc1Nc1ncc2c(n1)N(C1CCCC1)CC(C)(C)C(=O)N2C` [Compound I-158, N-(3-(9-cyclopentyl-6,7,8,9-tetrahydro-5,7,7-trimethyl-6-oxo-5H-pyrimido[4,5-b][1,4]diazepin-2-ylamino)-4-methoxyphenyl)acetamide] showed a Ki of less than 10 nM.
Consider `CN1C(=O)C(C)(C)CN(C2CCCC2)c2nc(Nc3cccc(C(=O)NC4CC4)c3)ncc21` [Compound I-159, 3-(9-cyclopentyl-6,7,8,9-tetrahydro-5,7,7-trimethyl-6-oxo-5H-pyrimido[4,5-b][1,4]diazepin-2-ylamino)-N-cyclopropylbenzamide], for which the Ki is 10 to 100 nM.
The same measure for `CNC(=O)c1ccc(Nc2ncc3c(n2)N(CC(F)(F)C(F)(F)F)CC(C)(C)C(=O)N3C)c(OC)c1` [Compound I-160, 4-(9-(2,2,3,3,3-pentafluoropropyl)-6,7,8,9-tetrahydro-5,7,7-trimethyl-6-oxo-5H-pyrimido[4,5-b][1,4]diazepin-2-ylamino)-3-methoxy-N-methylbenzamide]: 10 to 100 nM; for `CNC(=O)c1ccc(Nc2ncc3c(n2)N(c2cccc(Cl)c2)CC(C)(C)C(=O)N3C)c(OC)c1` [Compound I-161, 4-(9-(3-chlorophenyl)-6,7,8,9-tetrahydro-5,7,7-trimethyl-6-oxo-5H-pyrimido[4,5-b][1,4]diazepin-2-ylamino)-3-methoxy-N-methylbenzamide]: 10 to 100 nM; for `CC(=O)Nc1cc(Nc2ncc3c(n2)N(C2CCCC2)CC(C)(C)C(=O)N3C)ccc1C` [Compound I-162, N-(5-(9-cyclopentyl-6,7,8,9-tetrahydro-5,7,7-trimethyl-6-oxo-5H-pyrimido[4,5-b][1,4]diazepin-2-ylamino)-2-methylphenyl)acetamide]: 10 to 100 nM.
In the case of `CC(=O)Nc1ccc(C)c(Nc2ncc3c(n2)N(C2CCCC2)CC(C)(C)C(=O)N3C)c1` [Compound I-163, N-(3-(9-cyclopentyl-6,7,8,9-tetrahydro-5,7,7-trimethyl-6-oxo-5H-pyrimido[4,5-b][1,4]diazepin-2-ylamino)-4-methylphenyl)acetamide], the Ki was less than 10 nM.
The same measure for `CN1C(=O)C(C)(C)CN(C2CCCC2)c2nc(Nc3cccc(NC(=O)N4CCCCC4)c3)ncc21` [Compound I-164, N-(3-(9-cyclopentyl-6,7,8,9-tetrahydro-5,7,7-trimethyl-6-oxo-5H-pyrimido[4,5-b][1,4]diazepin-2-ylamino)phenyl)piperidine-1-carboxamide]: 10 to 100 nM; for `CC(=O)Nc1c(F)ccc(Nc2ncc3c(n2)N(C2CCCC2)CC(C)(C)C(=O)N3C)c1F` [Compound I-165, N-(3-(9-cyclopentyl-6,7,8,9-tetrahydro-5,7,7-trimethyl-6-oxo-5H-pyrimido[4,5-b][1,4]diazepin-2-ylamino)-2,6-difluorophenyl)acetamide]: 10 to 100 nM; for `COc1cc(C(=O)NC2CC(F)(F)C2)ccc1Nc1ncc2c(n1)N(C1CCCC1)CC(C)(C)C(=O)N2C` [Compound I-166, 4-(9-cyclopentyl-6,7,8,9-tetrahydro-5,7,7-trimethyl-6-oxo-5H-pyrimido[4,5-b][1,4]diazepin-2-ylamino)-N-(3,3-difluorocyclobutyl)-3-methoxybenzamide]: less than 10 nM.
In turn, `CNC(=O)c1ccc(Nc2ncc3c(n2)N(C2CCC2)CC(C)(C)C(=O)N3C)c(OC)c1` [Compound I-167, 4-(9-cyclobutyl-6,7,8,9-tetrahydro-5,7,7-trimethyl-6-oxo-5H-pyrimido[4,5-b][1,4]diazepin-2-ylamino)-3-methoxy-N-methylbenzamide] returned a Ki of less than 10 nM.
The same measure for `CNC(=O)c1ccc(Nc2ncc3c(n2)N(CC(C)(C)C)CC(C)(C)C(=O)N3C)c(OC)c1` [Compound I-168, 4-(6,7,8,9-tetrahydro-5,7,7-trimethyl-9-neopentyl-6-oxo-5H-pyrimido[4,5-b][1,4]diazepin-2-ylamino)-3-methoxy-N-methylbenzamide]: 10 to 100 nM; for `CNC(=O)c1ccc(Nc2ncc3c(n2)N(CC2CC2(F)F)CC(C)(C)C(=O)N3C)c(OC)c1` (stereo not drawn) [Compound I-169, 4-(9-((2,2-difluorocyclopropyl)methyl)-6,7,8,9-tetrahydro-5,7,7-trimethyl-6-oxo-5H-pyrimido[4,5-b][1,4]diazepin-2-ylamino)-3-methoxy-N-methylbenzamide]: less than 10 nM.
Then `CNC(=O)c1ccc(Nc2ncc3c(n2)N(C2CC(F)(F)C2)CC(C)(C)C(=O)N3C)c(OC)c1` [Compound I-170, 4-(9-(3,3-difluorocyclobutyl)-6,7,8,9-tetrahydro-5,7,7-trimethyl-6-oxo-5H-pyrimido[4,5-b][1,4]diazepin-2-ylamino)-3-methoxy-N-methylbenzamide], with less than 10 nM.
`COc1cc(C(=O)NC2CCOCC2)ccc1Nc1ncc2c(n1)N(C1CC(F)(F)C1)CC(C)(C)C(=O)N2C` [Compound I-171, 4-(9-(3,3-difluorocyclobutyl)-6,7,8,9-tetrahydro-5,7,7-trimethyl-6-oxo-5H-pyrimido[4,5-b][1,4]diazepin-2-ylamino)-N-(tetrahydro-2H-pyran-4-yl)-3-methoxybenzamide] yielded a Ki of less than 10 nM.
The same measure for `COc1cc(C(=O)N[C@H]2CCOC2)ccc1Nc1ncc2c(n1)N(C1CCCC1)CC(C)(C)C(=O)N2C` [Compound I-172, 4-(9-cyclopentyl-6,7,8,9-tetrahydro-5,7,7-trimethyl-6-oxo-5H-pyrimido[4,5-b][1,4]diazepin-2-ylamino)-N—((S)-tetrahydrofuran-3-yl)-3-methoxybenzamide]: less than 10 nM; for `COc1cc(C(=O)NC2CCCC2)ccc1Nc1ncc2c(n1)N(C1CCCC1)C[C@H](C)C(=O)N2C` [Compound I-173, 4-((S)-9-cyclopentyl-6,7,8,9-tetrahydro-5,7-dimethyl-6-oxo-5H-pyrimido[4,5-b][1,4]diazepin-2-ylamino)-N-cyclopentyl-3-methoxybenzamide]: less than 10 nM; for `COc1cc(C(=O)NC2CCOCC2)ccc1Nc1ncc2c(n1)N(C1CCCC1)C[C@H](C)C(=O)N2C` [Compound I-174, 4-((S)-9-cyclopentyl-6,7,8,9-tetrahydro-5,7-dimethyl-6-oxo-5H-pyrimido[4,5-b][1,4]diazepin-2-ylamino)-N-(tetrahydro-2H-pyran-4-yl)-3-methoxybenzamide]: less than 10 nM.
For the compound `COc1cc(C(=O)NC2CC2)ccc1Nc1ncc2c(n1)N(C1CCCC1)C[C@H](C)C(=O)N2C` [Compound I-175, 4-((S)-9-cyclopentyl-6,7,8,9-tetrahydro-5,7-dimethyl-6-oxo-5H-pyrimido[4,5-b][1,4]diazepin-2-ylamino)-N-cyclopropyl-3-methoxybenzamide], the Ki is less than 10 nM.
Then `COc1cc(C(=O)NC2CCCC2)ccc1Nc1ncc2c(n1)N(C1CCCC1)CC1(CC1)C(=O)N2C` [Compound I-176, N-cyclopentyl-4-(9′-cyclopentyl-5′-methyl-6′-oxo-5′,6′,8′,9′-tetrahydrospiro[cyclopropane-1,7′-pyrimido[4,5-b][1,4]diazepine]-2′-ylamino)-3-methoxybenzamide], with less than 10 nM.
On to `COc1cc(C(=O)NC2CCOCC2)ccc1Nc1ncc2c(n1)N(C1CCCC1)CC1(CC1)C(=O)N2C` [Compound I-177, 4-(9′-cyclopentyl-5′-methyl-6′-oxo-5′,6′,8′,9′-tetrahydrospiro[cyclopropane-1,7′-pyrimido[4,5-b][1,4]diazepine]-2′-ylamino)-3-methoxy-N-(tetrahydro-2H-pyran-4-yl)benzamide], for which the Ki was less than 10 nM.
In the case of `COc1cc(C(=O)NC2CC2)ccc1Nc1ncc2c(n1)N(C1CCCC1)CC1(CC1)C(=O)N2C` [Compound I-178, 4-(9′-cyclopentyl-5′-methyl-6′-oxo-5′,6′,8′,9′-tetrahydrospiro[cyclopropane-1,7′-pyrimido[4,5-b][1,4]diazepine]-2′-ylamino)-N-cyclopropyl-3-methoxybenzamide], the Ki is less than 10 nM.
The same measure for `COc1cc(C(=O)N[C@H]2CCOC2)ccc1Nc1ncc2c(n1)N(C1CCCC1)CC1(CC1)C(=O)N2C` [Compound I-179, (S)-4-(9′-cyclopentyl-5′-methyl-6′-oxo-5′,6′,8′,9′-tetrahydrospiro[cyclopropane-1,7′-pyrimido[4,5-b][1,4]diazepine]-2′-ylamino)-3-methoxy-N-(tetrahydrofuran-3-yl)benzamide]: less than 10 nM.
Then `CNC(=O)c1ccc(Nc2ncc3c(n2)N([C@H]2CCOC2)CC(C)(C)C(=O)N3C)c(OC)c1` [Compound I-180, 4-(6,7,8,9-tetrahydro-9-((S)-tetrahydrofuran-3-yl)-5,7,7-trimethyl-6-oxo-5H-pyrimido[4,5-b][1,4]diazepin-2-ylamino)-3-methoxy-N-methylbenzamide], with less than 10 nM; and `CNC(=O)c1ccc(Nc2ncc3c(n2)N([C@@H]2CCOC2)CC(C)(C)C(=O)N3C)c(OC)c1` [Compound I-181, 4-(6,7,8,9-tetrahydro-9-((R)-tetrahydrofuran-3-yl)-5,7,7-trimethyl-6-oxo-5H-pyrimido[4,5-b][1,4]diazepin-2-ylamino)-3-methoxy-N-methylbenzamide], with less than 10 nM.
The same measure for `COc1cc(C(=O)NC2CCOCC2)ccc1Nc1ncc2c(n1)N(C1CCCC1)C[C@@H](C)C(=O)N2C` [Compound I-182, (R)-4-(9-cyclopentyl-5,7-dimethyl-6-oxo-6,7,8,9-tetrahydro-5H-pyrimido[4,5-b][1,4]diazepin-2-ylamino)-3-methoxy-N-(tetrahydro-2H-pyran-4-yl)benzamide]: less than 10 nM; for `COc1cc(C(=O)N[C@H]2CCOC2)ccc1Nc1ncc2c(n1)N(C1CCCC1)C[C@@H](C)C(=O)N2C` [Compound I-183, 4-((R)-9-cyclopentyl-5,7-dimethyl-6-oxo-6,7,8,9-tetrahydro-5H-pyrimido[4,5-b][1,4]diazepin-2-ylamino)-3-methoxy-N—((S)-tetrahydrofuran-3-yl)benzamide]: less than 10 nM.
